Here are results for 21 molecules from PubChem BioAssay AID330 (DTP/NCI, 2004).

In this assay the test system is P388 leukemia ip, CD2F1 mice, survival T/C. The assay is described as follows: NCI In Vivo Anticancer Drug Screen. Data for tumor model P388 Leukemia (intraperitoneal) in CD2F1 (CDF1) mice. To be noted: endpoint: median survival time, higher = longer survival. The method, boiled down: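 Mice carrying the transplanted tumor received test compound or vehicle. Survival was recorded in each group, and the value is the treated-group measurement divided by that of the vehicle-treated control group.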

The mark [1] stands for this setting: dose: 60.0 mg/kg/injection, schedule: Q01DX005 (ip), vehicle: Klucel (hydroxypropylcellulose) (HPC).
[2] abbreviates: dose: 120.0 mg/kg/injection, schedule: Q01DX005 (ip), vehicle: Klucel (hydroxypropylcellulose) (HPC).
[3] abbreviates: dose: 240.0 mg/kg/injection, schedule: Q01DX005 (ip), vehicle: Klucel (hydroxypropylcellulose) (HPC).
Setting [4] is: dose: 60.0 mg/kg/injection, schedule: Q01DX005 (ip), vehicle: saline.
Setting [5] is: dose: 120.0 mg/kg/injection, schedule: Q01DX005 (ip), vehicle: saline.
Where [6] appears, read: dose: 240.0 mg/kg/injection, schedule: Q01DX005 (ip), vehicle: saline.
Where [7] appears, read: dose: 100.0 mg/kg/injection, schedule: Q04DX003 (ip), vehicle: saline with Tween-80.
The mark [8] stands for this setting: dose: 200.0 mg/kg/injection, schedule: Q04DX003 (ip), vehicle: saline with Tween-80.
Setting [9] is: dose: 400.0 mg/kg/injection, schedule: Q04DX003 (ip), vehicle: saline with Tween-80.
Setting [10] is: dose: 50.0 mg/kg/injection, schedule: Q01DX005 (ip), vehicle: Klucel (hydroxypropylcellulose) (HPC).
Where [11] appears, read: dose: 100.0 mg/kg/injection, schedule: Q01DX005 (ip), vehicle: Klucel (hydroxypropylcellulose) (HPC).
Where [12] appears, read: dose: 200.0 mg/kg/injection, schedule: Q01DX005 (ip), vehicle: Klucel (hydroxypropylcellulose) (HPC).

The structures appear in SMILES notation. Values joined by “and” are separate entries in the source; they are usually repeats but may differ in a detail not shown here. Equal values may be shown once. Toxic doses and inconclusive results are not listed. Peptide text beside a SMILES is read from it. * marks the point of attachment. Cbz = O=C(OCc1ccccc1)*; OtBu = CC(C)(C)O*

On to `C/C1=C/C2=CC(C)C[C@@H]2C(=O)[C@]2(C)C(=O)CC(C)(C)[C@H]2CC1=O` (stereo partly drawn), for which the T/C is 100 % of control (dose: 0.13 mg/kg/injection, schedule: Q01DX009 (ip), vehicle: Klucel (hydroxypropylcellulose) (HPC)); 103 % of control (dose: 0.25 mg/kg/injection, schedule: Q01DX009 (ip), vehicle: Klucel (hydroxypropylcellulose) (HPC)); 99 % of control (dose: 0.25 mg/kg/injection, schedule: Q01DX009 (ip), vehicle: saline with Tween-80); 102 % of control (dose: 0.5 mg/kg/injection, schedule: Q01DX009 (ip), vehicle: Klucel (hydroxypropylcellulose) (HPC)); 108 % of control (dose: 0.5 mg/kg/injection, schedule: Q01DX009 (ip), vehicle: saline with Tween-80); 106 % of control (dose: 1.0 mg/kg/injection, schedule: Q01DX009 (ip), vehicle: Klucel (hydroxypropylcellulose) (HPC)). In addition, the T/C is, setting by setting: (dose: 1.0 mg/kg/injection, schedule: Q01DX009 (ip), vehicle: saline with Tween-80) 99 % of control; (dose: 2.0 mg/kg/injection, schedule: Q01DX009 (ip), vehicle: saline with Tween-80) 101 % of control; (dose: 125.0 micrograms/kg/injection, schedule: Q01DX009 (ip), vehicle: saline + alcohol) 105 % of control; (dose: 250.0 micrograms/kg/injection, schedule: Q01DX009 (ip), vehicle: saline + alcohol) 103 % of control; (dose: 500.0 micrograms/kg/injection, schedule: Q01DX009 (ip), vehicle: saline + alcohol) 112 % of control; (dose: 1000.0 micrograms/kg/injection, schedule: Q01DX009 (ip), vehicle: saline + alcohol) 107 % of control. Besides, the T/C (dose: 2000.0 micrograms/kg/injection, schedule: Q01DX009 (ip), vehicle: saline + alcohol) is 105 % of control.

In the case of `NC(=O)c1ccccn1`, the T/C was 108 % of control (dose: 25.0 mg/kg/injection, schedule: Q01DX009 (ip), vehicle: saline); 110 % of control (dose: 50.0 mg/kg/injection, schedule: Q01DX009 (ip), vehicle: saline); 99 % of control (dose: 100.0 mg/kg/injection, schedule: Q01DX009 (ip), vehicle: saline); 99 % of control (dose: 200.0 mg/kg/injection, schedule: Q01DX009 (ip), vehicle: saline).

For `CCN(CC)C(=O)c1cncc(C(N)=O)c1`, the T/C runs as follows: under setting [1], 110 % of control; under setting [2], 111 % of control; under setting [3], 101 % of control.

Take `CCCCCCCCCCC(=O)CCCCC`: the T/C (dose: 100.0 mg/kg/injection, schedule: Q04DX003 (ip), vehicle: other) is 104 % of control; the T/C (dose: 200.0 mg/kg/injection, schedule: Q04DX003 (ip), vehicle: other) was 109 % of control; the T/C (dose: 400.0 mg/kg/injection, schedule: Q04DX003 (ip), vehicle: other) was 113 % of control.

Regarding `N#Cc1c(F)cccc1N1CCSCC1`, the T/C runs as follows: under setting [1], 109 % of control; under setting [2], 93 % of control; under setting [3], 89 % of control.

In the case of `COC(OC)C(Sc1ccccc1-n1cccc1)c1ccccc1` (stereo not drawn), the T/C runs as follows: under setting [4], 105 % of control; under setting [5], 103 % of control; under setting [6], 108 % of control.

Consider `COC(=O)C(CCC(=O)OC(C)(C)C)NC(=O)C(NC(=O)OCc1ccccc1)C(C)C` (stereo not drawn) (Cbz-Val-Glu(OtBu)-OMe; configuration not given here), for which the T/C by setting is: under setting [7], 110 % of control; under setting [8], 120 % of control; under setting [9], 90 % of control.

Consider `CCOC1=NC2(c3ccccc3)c3ccccc3SC12C` (stereo not drawn), for which the T/C reads like this: under setting [10], 98 % of control; under setting [11], 100 % of control; under setting [12], 93 % of control.

Regarding `CC(C)CC(NC(=O)c1cccnc1)C(=O)O` (stereo not drawn), the T/C under setting [10] was 104 % of control, the T/C under setting [11] was 99 % of control and the T/C under setting [12] was 93 % of control.

Regarding `CC(C)=NN/C=N/S(=O)(=O)c1ccc(C)cc1`, the T/C is 104 % of control under setting [10], 104 % of control under setting [11] and 104 % of control under setting [12].

Regarding `N#Cc1nc(CC(=O)c2ccc(Cl)cc2Cl)c(CC(=O)c2ccc(Cl)cc2Cl)nc1C#N`, the T/C runs as follows: under setting [4], 112 % of control; under setting [5], 106 % of control.

Consider `COC(=O)C1(C2CCCCCCCCCCC2=O)NC(=S)NC(=O)C1C#N` (stereo not drawn), for which the T/C was 96 % of control under setting [4], 92 % of control under setting [5] and 92 % of control under setting [6].

For the molecule `CCCCC(CC)CCC(CC(C)C)OCCC#N` (stereo not drawn), the T/C by setting is: (dose: 100.0 mg/kg/injection, schedule: Q01DX009 (ip), vehicle: Klucel (hydroxypropylcellulose) (HPC)) 100 % of control; (dose: 200.0 mg/kg/injection, schedule: Q01DX009 (ip), vehicle: Klucel (hydroxypropylcellulose) (HPC)) 96 % of control; (dose: 400.0 mg/kg/injection, schedule: Q01DX009 (ip), vehicle: Klucel (hydroxypropylcellulose) (HPC)) 90 % of control.

Turning to `CCCCCCC(C/C=C\CCCCCCCC(=O)OC)OC(C)=O` (stereo not drawn), the T/C under setting [7] was 95 % of control, the T/C under setting [8] was 100 % of control and the T/C under setting [9] is 104 % of control.

Regarding `[C-]#[N+]C1CCCCC1.[C-]#[N+]C1CCCCC1.[C-]#[N+]C1CCCCC1.[C-]#[N+]C1CCCCC1.[C-]#[N+]C1CCCCC1.[C-]#[N+]C1CCCCC1.[Mn]`, the T/C (dose: 0.75 mg/kg/injection, schedule: Q01DX009 (ip), vehicle: saline with Tween-80) is 155 % of control and 159 % of control.

As to `COC(=O)/C(C#N)=C/c1cccnc1`, the T/C was 101 % of control under setting [10], 101 % of control under setting [11] and 107 % of control under setting [12].

As for `COc1ccc(CCNS(=O)(=O)c2c(C)c(C)c(C)c(C)c2C)cc1OC`, the T/C reads like this: under setting [10], 93 % of control; under setting [11], 88 % of control.

Take `Cc1csc(Nc2c3ccccc3nc3ccccc23)n1`: the T/C runs as follows: (dose: 12.5 mg/kg/injection, schedule: Q04DX002 (ip), vehicle: distilled water + Tween-80) 99 % of control; (dose: 25.0 mg/kg/injection, schedule: Q04DX002 (ip), vehicle: distilled water + Tween-80) 98 % of control; (dose: 50.0 mg/kg/injection, schedule: Q04DX002 (ip), vehicle: distilled water + Tween-80) 91 % of control; (dose: 100.0 mg/kg/injection, schedule: Q04DX002 (ip), vehicle: distilled water + Tween-80) 91 % of control; (dose: 200.0 mg/kg/injection, schedule: Q04DX002 (ip), vehicle: distilled water + Tween-80) 87 % of control; (dose: 400.0 mg/kg/injection, schedule: Q04DX002 (ip), vehicle: distilled water + Tween-80) 100 % of control.

For `C=C(Br)C(=NC(C)(C)C)Nc1ccc(Cl)cc1`, the T/C reads like this: (dose: 6.25 mg/kg/injection, schedule: Q01DX005 (ip), vehicle: Klucel (hydroxypropylcellulose) (HPC)) 107 % of control; (dose: 12.5 mg/kg/injection, schedule: Q01DX005 (ip), vehicle: Klucel (hydroxypropylcellulose) (HPC)) 114 % of control; under setting [10], 98 % of control; under setting [11], 103 % of control; under setting [12], 102 % of control.

Turning to `C=C1C(C2(C)C=CC(=O)OC3(C)COC(=O)CC32)C(OC=O)C(OC(=O)C(O)C(C)CC)C2(C)C(c3ccoc3)CC(OC(C)=O)C12O` (stereo not drawn), the T/C is 96 % of control (dose: 5.0 mg/kg/injection, schedule: Q01DX005 (ip), vehicle: Klucel (hydroxypropylcellulose) (HPC)); 98 % of control and 96 % of control (dose: 10.0 mg/kg/injection, schedule: Q01DX005 (ip), vehicle: Klucel (hydroxypropylcellulose) (HPC)); 91 % of control and 95 % of control (dose: 20.0 mg/kg/injection, schedule: Q01DX005 (ip), vehicle: Klucel (hydroxypropylcellulose) (HPC)); 95 % of control and 96 % of control (dose: 40.0 mg/kg/injection, schedule: Q01DX005 (ip), vehicle: Klucel (hydroxypropylcellulose) (HPC)); 102 % of control (dose: 80.0 mg/kg/injection, schedule: Q01DX005 (ip), vehicle: Klucel (hydroxypropylcellulose) (HPC)); 87 % of control (dose: 160.0 mg/kg/injection, schedule: Q01DX005 (ip), vehicle: Klucel (hydroxypropylcellulose) (HPC)).

`CC1N2CCc3ccccc3C2C2c3ccccc3CCN21` (stereo not drawn): the T/C runs as follows: (dose: 12.5 mg/kg/injection, schedule: Q01DX001 (ip), vehicle: suspension in saline) 111 % of control; (dose: 25.0 mg/kg/injection, schedule: Q01DX001 (ip), vehicle: suspension in saline) 111 % of control; (dose: 50.0 mg/kg/injection, schedule: Q01DX001 (ip), vehicle: suspension in saline) 102 % of control and 118 % of control.
